Experimental data: the NIST ThermoML archive (doi:10.1016/j.jct.2016.04.014)
± gives the expanded uncertainty stated by the source.

Assay: xn = mol fraction of the nth substance listed
Conditions: Liquid, Vibrating tube method

With `CCCCCCC` [heptane] + CCO the mass density (293.15 K, 100 kPa, x1 = 0.2505) was 737.7 ± 1.7 kg/m3, the mass density (293.15 K, 100 kPa, x1 = 0.5004) was 711 ± 1.8 kg/m3 and the mass density (293.15 K, 100 kPa, x1 = 0.7501) was 694.3 ± 1.7 kg/m3. The mass density (293.15 K, 500 kPa, x1 = 0.2505) was 738.1 ± 1.7 kg/m3, the mass density (293.15 K, 500 kPa, x1 = 0.5004) was 711.3 ± 1.8 kg/m3 and the mass density (293.15 K, 500 kPa, x1 = 0.7501) was 694.6 ± 1.7 kg/m3. The mass density (293.15 K, 5000 kPa, x1 = 0.2505) was 742.1 ± 1.7 kg/m3, the mass density (293.15 K, 5000 kPa, x1 = 0.5004) was 715.4 ± 1.7 kg/m3 and the mass density (293.15 K, 5000 kPa, x1 = 0.7501) was 698.7 ± 1.7 kg/m3. For the same compound, the mass density (293.15 K, 10000 kPa, x1 = 0.2505) was 746.4 ± 1.7 kg/m3, the mass density (293.15 K, 10000 kPa, x1 = 0.5004) was 719.8 ± 1.7 kg/m3 and the mass density (293.15 K, 10000 kPa, x1 = 0.7501) was 703 ± 1.7 kg/m3. The mass density (293.15 K, 15000 kPa, x1 = 0.2505) was 750.4 ± 1.7 kg/m3, the mass density (293.15 K, 15000 kPa, x1 = 0.5004) was 723.8 ± 1.7 kg/m3 and the mass density (293.15 K, 15000 kPa, x1 = 0.7501) was 707.1 ± 1.7 kg/m3. For the same compound, the mass density (293.15 K, 20000 kPa, x1 = 0.2505) was 754.3 ± 1.7 kg/m3, the mass density (293.15 K, 20000 kPa, x1 = 0.5004) was 727.7 ± 1.7 kg/m3 and the mass density (293.15 K, 20000 kPa, x1 = 0.7501) was 710.9 ± 1.7 kg/m3. It also gave a mass density (293.15 K, 25000 kPa, x1 = 0.2505) of 757.9 ± 1.7 kg/m3, a mass density (293.15 K, 25000 kPa, x1 = 0.5004) of 731.3 ± 1.7 kg/m3 and a mass density (293.15 K, 25000 kPa, x1 = 0.7501) of 714.6 ± 1.8 kg/m3. The mass density (293.15 K, 30000 kPa, x1 = 0.2505) was 761.4 ± 1.7 kg/m3, the mass density (293.15 K, 30000 kPa, x1 = 0.5004) was 734.8 ± 1.8 kg/m3 and the mass density (293.15 K, 30000 kPa, x1 = 0.7501) was 718 ± 1.8 kg/m3. The mass density (293.15 K, 35000 kPa, x1 = 0.2505) was 764.7 ± 1.8 kg/m3, the mass density (293.15 K, 35000 kPa, x1 = 0.5004) was 738.1 ± 1.8 kg/m3 and the mass density (293.15 K, 35000 kPa, x1 = 0.7501) was 721.4 ± 1.8 kg/m3. For the same compound, the mass density (293.15 K, 40000 kPa, x1 = 0.2505) was 768 ± 1.8 kg/m3, the mass density (293.15 K, 40000 kPa, x1 = 0.5004) was 741.4 ± 1.8 kg/m3 and the mass density (293.15 K, 40000 kPa, x1 = 0.7501) was 724.6 ± 1.8 kg/m3. For the same compound, the mass density (303.15 K, 100 kPa, x1 = 0.2505) was 728.9 ± 1.7 kg/m3, the mass density (303.15 K, 100 kPa, x1 = 0.5004) was 702.1 ± 1.7 kg/m3 and the mass density (303.15 K, 100 kPa, x1 = 0.7501) was 685.4 ± 1.7 kg/m3. It also gave a mass density (303.15 K, 500 kPa, x1 = 0.2505) of 729.3 ± 1.7 kg/m3, a mass density (303.15 K, 500 kPa, x1 = 0.5004) of 702.5 ± 1.7 kg/m3 and a mass density (303.15 K, 500 kPa, x1 = 0.7501) of 685.8 ± 1.7 kg/m3. For the same compound, the mass density (303.15 K, 5000 kPa, x1 = 0.2505) was 733.6 ± 1.7 kg/m3, the mass density (303.15 K, 5000 kPa, x1 = 0.5004) was 706.9 ± 1.7 kg/m3 and the mass density (303.15 K, 5000 kPa, x1 = 0.7501) was 690.3 ± 1.7 kg/m3. The mass density (303.15 K, 10000 kPa, x1 = 0.2505) was 738.2 ± 1.7 kg/m3, the mass density (303.15 K, 10000 kPa, x1 = 0.5004) was 711.5 ± 1.7 kg/m3 and the mass density (303.15 K, 10000 kPa, x1 = 0.7501) was 694.9 ± 1.7 kg/m3. The mass density (303.15 K, 15000 kPa, x1 = 0.2505) was 742.4 ± 1.7 kg/m3, the mass density (303.15 K, 15000 kPa, x1 = 0.5004) was 715.8 ± 1.7 kg/m3 and the mass density (303.15 K, 15000 kPa, x1 = 0.7501) was 699.2 ± 1.7 kg/m3. The mass density (303.15 K, 20000 kPa, x1 = 0.2505) was 746.5 ± 1.7 kg/m3, the mass density (303.15 K, 20000 kPa, x1 = 0.5004) was 719.9 ± 1.7 kg/m3 and the mass density (303.15 K, 20000 kPa, x1 = 0.7501) was 703.3 ± 1.7 kg/m3. The mass density (303.15 K, 25000 kPa, x1 = 0.2505) was 750.3 ± 1.7 kg/m3, the mass density (303.15 K, 25000 kPa, x1 = 0.5004) was 723.8 ± 1.7 kg/m3 and the mass density (303.15 K, 25000 kPa, x1 = 0.7501) was 707.1 ± 1.8 kg/m3. The mass density (303.15 K, 30000 kPa, x1 = 0.2505) was 754 ± 1.7 kg/m3, the mass density (303.15 K, 30000 kPa, x1 = 0.5004) was 727.4 ± 1.8 kg/m3 and the mass density (303.15 K, 30000 kPa, x1 = 0.7501) was 710.8 ± 1.8 kg/m3. It also gave a mass density (303.15 K, 35000 kPa, x1 = 0.2505) of 757.5 ± 1.8 kg/m3, a mass density (303.15 K, 35000 kPa, x1 = 0.5004) of 730.9 ± 1.8 kg/m3 and a mass density (303.15 K, 35000 kPa, x1 = 0.7501) of 714.3 ± 1.8 kg/m3. The mass density (303.15 K, 40000 kPa, x1 = 0.2505) was 760.8 ± 1.8 kg/m3, the mass density (303.15 K, 40000 kPa, x1 = 0.5004) was 734.3 ± 1.8 kg/m3 and the mass density (303.15 K, 40000 kPa, x1 = 0.7501) was 717.6 ± 1.8 kg/m3. It also gave a mass density (313.15 K, 100 kPa, x1 = 0.2505) of 719.9 ± 1.7 kg/m3, a mass density (313.15 K, 100 kPa, x1 = 0.5004) of 693 ± 1.7 kg/m3 and a mass density (313.15 K, 100 kPa, x1 = 0.7501) of 676.4 ± 1.7 kg/m3. For the same compound, the mass density (313.15 K, 500 kPa, x1 = 0.2505) was 720.3 ± 1.7 kg/m3, the mass density (313.15 K, 500 kPa, x1 = 0.5004) was 693.4 ± 1.7 kg/m3 and the mass density (313.15 K, 500 kPa, x1 = 0.7501) was 676.9 ± 1.7 kg/m3. For the same compound, the mass density (313.15 K, 5000 kPa, x1 = 0.2505) was 725 ± 1.7 kg/m3, the mass density (313.15 K, 5000 kPa, x1 = 0.5004) was 698.2 ± 1.7 kg/m3 and the mass density (313.15 K, 5000 kPa, x1 = 0.7501) was 681.6 ± 1.7 kg/m3. For the same compound, the mass density (313.15 K, 10000 kPa, x1 = 0.2505) was 729.8 ± 1.7 kg/m3, the mass density (313.15 K, 10000 kPa, x1 = 0.5004) was 703.1 ± 1.7 kg/m3 and the mass density (313.15 K, 10000 kPa, x1 = 0.7501) was 686.6 ± 1.7 kg/m3. The mass density (313.15 K, 15000 kPa, x1 = 0.2505) was 734.3 ± 1.7 kg/m3, the mass density (313.15 K, 15000 kPa, x1 = 0.5004) was 707.7 ± 1.7 kg/m3 and the mass density (313.15 K, 15000 kPa, x1 = 0.7501) was 691.2 ± 1.7 kg/m3. The mass density (313.15 K, 20000 kPa, x1 = 0.2505) was 738.6 ± 1.7 kg/m3, the mass density (313.15 K, 20000 kPa, x1 = 0.5004) was 712 ± 1.7 kg/m3 and the mass density (313.15 K, 20000 kPa, x1 = 0.7501) was 695.5 ± 1.8 kg/m3. It also gave a mass density (313.15 K, 25000 kPa, x1 = 0.2505) of 742.6 ± 1.7 kg/m3, a mass density (313.15 K, 25000 kPa, x1 = 0.5004) of 716.1 ± 1.8 kg/m3 and a mass density (313.15 K, 25000 kPa, x1 = 0.7501) of 699.6 ± 1.8 kg/m3. For the same compound, the mass density (313.15 K, 30000 kPa, x1 = 0.2505) was 746.5 ± 1.7 kg/m3, the mass density (313.15 K, 30000 kPa, x1 = 0.5004) was 720 ± 1.8 kg/m3 and the mass density (313.15 K, 30000 kPa, x1 = 0.7501) was 703.4 ± 1.8 kg/m3. The mass density (313.15 K, 35000 kPa, x1 = 0.2505) was 750.1 ± 1.8 kg/m3, the mass density (313.15 K, 35000 kPa, x1 = 0.5004) was 723.7 ± 1.8 kg/m3 and the mass density (313.15 K, 35000 kPa, x1 = 0.7501) was 707.1 ± 1.8 kg/m3. For the same compound, the mass density (313.15 K, 40000 kPa, x1 = 0.2505) was 753.7 ± 1.8 kg/m3, the mass density (313.15 K, 40000 kPa, x1 = 0.5004) was 727.2 ± 1.8 kg/m3 and the mass density (313.15 K, 40000 kPa, x1 = 0.7501) was 710.6 ± 1.8 kg/m3. The mass density (323.15 K, 100 kPa, x1 = 0.2505) was 710.6 ± 1.7 kg/m3, the mass density (323.15 K, 100 kPa, x1 = 0.5004) was 683.6 ± 1.7 kg/m3 and the mass density (323.15 K, 100 kPa, x1 = 0.7501) was 667.2 ± 1.7 kg/m3. It also gave a mass density (323.15 K, 500 kPa, x1 = 0.2505) of 711.1 ± 1.7 kg/m3, a mass density (323.15 K, 500 kPa, x1 = 0.5004) of 684.1 ± 1.7 kg/m3 and a mass density (323.15 K, 500 kPa, x1 = 0.7501) of 667.6 ± 1.7 kg/m3. The mass density (323.15 K, 5000 kPa, x1 = 0.2505) was 716.1 ± 1.7 kg/m3, the mass density (323.15 K, 5000 kPa, x1 = 0.5004) was 689.2 ± 1.7 kg/m3 and the mass density (323.15 K, 5000 kPa, x1 = 0.7501) was 672.8 ± 1.7 kg/m3. It also gave a mass density (323.15 K, 10000 kPa, x1 = 0.2505) of 721.2 ± 1.7 kg/m3, a mass density (323.15 K, 10000 kPa, x1 = 0.5004) of 694.5 ± 1.7 kg/m3 and a mass density (323.15 K, 10000 kPa, x1 = 0.7501) of 678.1 ± 1.7 kg/m3.
